In publication PMC10607708 (Journal of natural products, 2021):
Like-named read-outs stand apart in the source and are kept apart here.

What was measured:
[1] = assay type: in vivo, C57BL/6 mice; details: for bioavailability: C57BL/6, mouse, whole blood, ip, 500 mg/kg; for AUC0-t /Dose / Cmax/Dose: blood
[2] = Saliva levels after intraperitoneal administration of ATB; assay type: in vivo, C57BL/6 mice; details: for detection in mouse saliva: i.p. 500 mg/kg ATB q.d., 7 consecutive days
[3] = Pharmacokinetics after oral administration of ATB or pure KACs, blood; assay type: in vivo, C57BL/6 mice; details: for AUC0-t /Dose / Cmax/Dose: blood
[4] = Stability in saliva; assay type: in vitro ADME
[5] = tested on: Cal-27; experiment: MTT anti-proliferation assay in Cal-27 cells; assay type: cell-based; details: in words
[6] = Pharmacokinetics after i.v. administration of ATB, blood; assay type: in vivo, C57BL/6 mice; details: 500 mg/kg ATB IV, matrine dosage 2.79 mg/kg
[7] = tested on: PGE2; experiment: PGE2 assay in LPS-stimulated SCC-9 cells; assay type: cell-based; details: LC-MS/MS
[8] = tested on: salivary gland adenoid cystic carcinoma cells (ACC-M); details: in vitro; cited from earlier work
[9] = 500 mg/kg ATB IP Day 1, matrine dosage 2.79 mg/kg
[10] = 500 mg/kg ATB IP Day 7, matrine dosage 2.79 mg/kg
[11] = 5 mg/kg KAC Oral (pure compound), matrine dosage 5.00 mg/kg
[12] = 100 mg/kg ATB Oral, matrine dosage 0.56 mg/kg
[13] = 500 mg/kg ATB Oral, matrine dosage 2.79 mg/kg
[14] = 4000 mg/kg ATB Oral, matrine dosage 22.32 mg/kg
[15] = saliva, 500 mg/kg ATB IP Day 7, matrine dosage 2.79 mg/kg

With `Oc1ccc2c(c1)OCC1c3cc4c(cc3OC21)OCO4` (stereo not shown) [Maackiain, maackiain] the bioavailability [1] was 4.8 ± 4.2% and the “detection in mouse saliva” value [2] was “no Frax or Maac detected”.

In the case of `O=C1CCC[C@@H]2[C@H]3CCCN4CCC[C@@H](CN12)[C@@H]34` [Matrine, matrine], the bioavailability [1] is reported as 28.9 ± 11%, the “AUC0-t /Dose” value [1, 9] is reported as 528.7 ± 200.9 (hr*ng/mL)/(mg/kg) and the Cmax/Dose [1, 9] is reported as 292.4 ± 147.8 (ng/mL)/(mg/kg). For the same compound, the “AUC0-t /Dose” value [1, 10] was 592.0 ± 434.7 (hr*ng/mL)/(mg/kg), the Cmax/Dose [1, 10] was 197.8 ± 144.1 (ng/mL)/(mg/kg) and the “accumulation in the body after multiple-dose administration” value ([1]; in words, Fig 5) was “no accumulation”. The “AUC0-t /Dose” value [3, 11] was 46.9 ± 13.0 (hr*ng/mL)/(mg/kg), the Cmax/Dose [3, 11] was 22.0 ± 7.4 (ng/mL)/(mg/kg) and the “AUC0-t /Dose” value [3, 12] was 58.5 ± 32.7 (hr*ng/mL)/(mg/kg). For the same compound, the Cmax/Dose [3, 12] was 25.9 ± 20.5 (ng/mL)/(mg/kg), the “AUC0-t /Dose” value [3, 13] was 43.1 ± 21.3 (hr*ng/mL)/(mg/kg) and the Cmax/Dose [3, 13] was 19.3 ± 10.2 (ng/mL)/(mg/kg). For the same compound, the “AUC0-t /Dose” value [3, 14] was 164.1 ± 60.0 (hr*ng/mL)/(mg/kg), the Cmax/Dose [3, 14] was 31.8 ± 10.6 (ng/mL)/(mg/kg) and the “increase of dose-normalized AUC” value ([3]; oral ATB, from 500 mg/kg to 4000 mg/kg) was ~ 400%. The AUC(0-t) ([2]; C57BL/6, mouse, saliva, ip, 500 mg/kg) was 2680 ± 1660 ng·h/mL, the “detection in mouse saliva” value [2] was “detected” and the “AUC0-t /Dose” value [2, 15] was 952.8 ± 594.4 (hr*ng/mL)/(mg/kg). The Cmax/Dose [2, 15] was 1533.9 ± 823.5 (ng/mL)/(mg/kg), the stability in saliva ([4]; room temperature) was 4 h and the stability in saliva ([4]; −20 °C) was 170 h. The “inhibition effect against Cal-27 cells” value [5] was “moderate inhibition effect”, the “AUC0-t /Dose” value [6] was 1830.0 ± 1241.2 (hr*ng/mL)/(mg/kg) and the Cmax/Dose [6] was 1408.3 ± 835.8 (ng/mL)/(mg/kg). The “inhibition of PGE2 production” value ([7]; 50 μM) was “significant inhibition” and the “effect on adhesion and invasion properties of ACC-M cells” value [8] was “inhibit”.

With `CC1=C2C(=O)O[C@@H](c3ccoc3)[C@]2(C)CCC1` [Fraxinellone, fraxinellone] the bioavailability [1] was 2.8 ± 2.1%, the “detection in mouse saliva” value [2] was “no Frax or Maac detected” and the “inhibition of PGE2 production” value ([7]; 25 μM) was “significant inhibition”.
